Source: patent US6486201B1, “Agarofuan derivatives, their preparation, pharmaceutical composition containing them and their use as medicine” (Institute of Materia Medica, Chinese Academy of Medical …, priority 1998, dated 2002)

Assays:
Wistar rats [1] = test: Elevated plus maze test on rats; assay type: in vivo, rat; settings: 32 mg/kg ip, in 2% lecithin, mean ± SD, n 4
Wistar rats [2] = test: Elevated plus maze test on rats; assay type: in vivo, rat; settings: for total time of staying on the opened arm (sec. in 5 min.): in 2% lecithin, n 12
Text: The elevated plus-maze test has been used by Pellow, S. And File, SE. for anti-anxiety model in rats. It is one of the most widely used models for anxiolytics. The elevated plus maze has two cross arms, one is an opened arm (50*10 cm, length, width), another is a closed arm (50×10×40 cm, length, width, height) and the maze is 50 cm above the floor during experiment. The rat for experiment is put on the opening at the cross point (10×10) of the two arms, and may freely choose to enter either opened or closed arm.
Wistar rats of 160±20 g body weight were used, and divided randomly into 8 groups, 12 in each group. Handling adaptability training was carried out one week before the experiment. In the experiment, AF-5 in 2% lecithin of the doses listed in Table 1 was given to rats which were fasted for 12 hours before experiment. After administration, the rat was put on the center opening of the elevated plus headed to opened arm, and times of entering the opened arm, total time of staying on the opened arm, and times of shuttling inside the closed arm were recorded.

Wistar rats [3] = test: Social interaction test on rats; assay type: in vivo, rat; settings: mean ± SD; for total time of interaction, 0-9 (minutes): high illuminance unfamiliar conditions (HU); for interaction time (sec. in 9 min): 2 mg/kg ip, HU
Experimental: The rats (Wistar, 160±20 g) for experiment were individually housed in chambers (55×55×40 cm), and handling adaptability and injection training were carried out twice a day 2 weeks before experiment. One day before experiment, the rats were weighed, labeled and grouped at random in pairs but still separated-until experiment. In experiment, 8 pairs of rats were given AF-5 in 2% lecithin (2% lecithin as control), and the total time of interaction was recorded including smelling, licking, leaning against, grabbing, chasing, biting, following, kicking, hitting etc. The experiment conditions were high illuminance with unfamiliar conditions (HU), low illuminance with unfamiliar conditions, high illuminance with familiar conditions and low illuminance with familiar conditions T-test was used to determine the significance between the test group and control group (Table 3, 4).

mice = test: Single dose toxicity in mice; assay type: in vivo
Text: One week alive rate was 100%. The possible durable dosage was 2.4 g/kg by P.O. and two week alive rate was 100% at this dosage.

Kunming mice = test: Forced swimming test on mice (anti-depression activity); assay type: in vivo, mouse; settings: for time of immobile phase (sec/4 min): mean ± SD
Experimental: The experiment used Kunming mice of China, male, 18-21 g of body weight. […]
The water in experiment vessel was 12 cm in depth, 12.5 cm in diameter and kept at 26° C. Each mouse was put in the water and forced to swim for 6 min in which total immobile time in the last 4 min was recorded, and the significance between experiment group and control group was tested by T value (Table 5).

[4] = 2 mg/kg ip, time 5 minutes, mean ± SE
[5] = 2 mg/kg ip, time 15 minutes, mean ± SE
[6] = 2 mg/kg ip, time 30 minutes, mean ± SE
[7] = 2 mg/kg ip, time 60 minutes, mean ± SE
[8] = 2 mg/kg ip, time 90 minutes, mean ± SE

CCCCC1=CCC[C@@]2(C)CC[C@@H]3C[C@]12OC3(C)C [AF-5, (1R,6S,9R)6,10,10-Trimethyl-2-butyl-11-oxatricyclo[7.2.1.0^1,6]dodec-2-ene]
total time of staying on the opened arm (sec. in 5 min.) (Wistar rats [1]): 9.6 sec. in 5 min. | Times of shuttling (Wistar rats [2]; 0.5 mg/kg ip, 5 min, closed arm, mean ± SD): 2.5 | total time of staying on the opened arm (sec. in 5 min.) (Wistar rats [2]; 0.5 mg/kg ip, 5 min, mean ± SD): 23 sec. in 5 min. | Times of shuttling (Wistar rats [2]; 1 mg/kg ip, 5 min, closed arm, mean ± SD): 2.8 | total time of staying on the opened arm (sec. in 5 min.) (Wistar rats [2]; 1 mg/kg ip, 5 min, mean ± SD): 25 + sec. in 5 min. | Times of shuttling (Wistar rats [2]; 2 mg/kg ip, 5 min, closed arm, mean ± SD): 2.8 | total time of staying on the opened arm (sec. in 5 min.) (Wistar rats [2]; 2 mg/kg ip, 5 min, mean ± SD): 36 sec. in 5 min. | Time in opened arm (Wistar rats [2]; [4]): 4.4 | Times of shuttling (Wistar rats [2]; [4]): 3.0 | Time in opened arm (Wistar rats [2]; [5]): 6.1 | Times of shuttling (Wistar rats [2]; [5]): 4.1 | Time in opened arm (Wistar rats [2]; [6]): 7.9 | Times of shuttling (Wistar rats [2]; [6]): 6.6 | Time in opened arm (Wistar rats [2]; [7]): 20.8 | Times of shuttling (Wistar rats [2]; [7]): 5.6 | Time in opened arm (Wistar rats [2]; [8]): 1.27 | Times of shuttling (Wistar rats [2]; [8]): 3.7 | Times of shuttling (Wistar rats [2]; 4 mg/kg ip, 5 min, closed arm, mean ± SD): 2.3 | total time of staying on the opened arm (sec. in 5 min.) (Wistar rats [2]; 4 mg/kg ip, 5 min, mean ± SD): 30 sec. in 5 min. | Times of shuttling (Wistar rats [2]; 8 mg/kg ip, 5 min, closed arm, mean ± SD): 1.3 | total time of staying on the opened arm (sec. in 5 min.) (Wistar rats [2]; 8 mg/kg ip, 5 min, mean ± SD): 14 sec. in 5 min. | Times of shuttling (Wistar rats [2]; 16 mg/kg ip, 5 min, closed arm, mean ± SD): 4.2 | total time of staying on the opened arm (sec. in 5 min.) (Wistar rats [2]; 16 mg/kg ip, 5 min, mean ± SD): 9.8 sec. in 5 min. | Times of shuttling (Wistar rats [2]; 32 mg/kg ip, 5 min, closed arm, mean ± SD): 3.0 | anti-anxiety activity in elevated plus maze test (in words) (Wistar rats [2]; rats, dose-effect): antianxiety activity with a wide dosage range | total time of interaction, 0-9 (minutes) (Wistar rats [3]; 0.125 mg/kg): 1.93 min | total time of interaction, 0-9 (minutes) (Wistar rats [3]; 0.25 mg/kg): 2.28 min | total time of interaction, 0-9 (minutes) (Wistar rats [3]; 0.5 mg/kg): 3.65 min | total time of interaction, 0-9 (minutes) (Wistar rats [3]; 1.0 mg/kg): 4.02 min | interaction time (sec. in 9 min) (Wistar rats [3]; time 5 minutes): 98 sec. in 9 min | interaction time (sec. in 9 min) (Wistar rats [3]; time 15 minutes): 143 sec. in 9 min | interaction time (sec. in 9 min) (Wistar rats [3]; time 30 minutes): 103 sec. in 9 min | interaction time (sec. in 9 min) (Wistar rats [3]; time 60 minutes): 166 sec. in 9 min | interaction time (sec. in 9 min) (Wistar rats [3]; time 90 minutes): 112 sec. in 9 min | total time of interaction, 0-9 (minutes) (Wistar rats [3]; 2.0 mg/kg): 3.25 min | total time of interaction, 0-9 (minutes) (Wistar rats [3]; 4.0 mg/kg): 3.23 min | observed reactions after single dose (mice; intravenous injection 500 mg, mice): effect of calming, lying down, decreasing alarm reaction and without other abnormal reactions | toxicity in single dose toxicity test (in words) (mice; mice): low toxicity and high safety coefficient | possible durable dosage (mice; mouse, in vivo, po, 2 week): 2.4 g/kg | time of immobile phase (sec/4 min) (Kunming mice; P.O. three times a day (24, 5, 0.5 hours before experiment), 0.5 mg/kg): 90 ± 25 sec/4 min | time of immobile phase (sec/4 min) (Kunming mice; P.O. three times a day (24, 5, 0.5 hours before experiment), 1.5 mg/kg): 60 ± 30 sec/4 min | time of immobile phase (sec/4 min) (Kunming mice; P.O. three times a day (24, 5, 0.5 hours before experiment), 5.0 mg/kg): 83 ± 35 sec/4 min | time of immobile phase (sec/4 min) (Kunming mice; P.O. three times a day (24, 5, 0.5 hours before experiment), 15.0 mg/kg): 74 ± 41 sec/4 min | time of immobile phase (sec/4 min) (Kunming mice; P.O., s.i.d. × 21 days, 5.0 mg/kg): 84 ± 41 sec/4 min | time of immobile phase (sec/4 min) (Kunming mice; P.O., s.i.d. × 21 days, 7.5 mg/kg): 69 ± 45 sec/4 min | time of immobile phase (sec/4 min) (Kunming mice; P.O., s.i.d. × 21 days, 15.0 mg/kg): 92 ± 66 sec/4 min | time of mobile phase vs. control (in words) (Kunming mice; administration in 21 successive days): prolonged the mobile time significantly | anti-depression activity in forced swimming test (in words) (Kunming mice; mice): has anti-depression activity | time of mobile phase vs. control (in words) (Kunming mice; single dosing 1.5, 5, and 15 mg/kg): did not prolong the time of mobile phase | time of immobile phase (sec/4 min) (Kunming mice; single dosing, P.O., 0.5 hr, 1.5 mg/kg): 93 ± 39 sec/4 min | time of immobile phase (sec/4 min) (Kunming mice; single dosing, P.O., 0.5 hr, 5.0 mg/kg): 101 ± 52 sec/4 min | time of immobile phase (sec/4 min) (Kunming mice; single dosing, P.O., 0.5 hr, 15.0 mg/kg): 97 ± 43 sec/4 min | time of mobile phase vs. control (in words) (Kunming mice; three times a day, 1.5 mg/kg group): showed significance | time of mobile phase vs. control (in words) (Kunming mice; three times a day, 0.5 and 5 mg/kg groups): did not show significance though prolonged the mobile time
